Data taken from article PMC4145847 (ChemMedChem, 2014).
Where two headings read alike, the source gives them in different places.

Experiments:
[1] = system: DU-145 human prostate cancer cells; assay: Antiproliferative assay; assay type: cell-based; details: for GI50: read-out: GI50 DU-145; for Fold less active than 20b: DU-145 and MDA MB-231
[2] = system: MDA MB-231 human breast cancer cells; assay: Antiproliferative assay; assay type: cell-based; details: for GI50: read-out: GI50 MDA MB-231
[3] = system: Bovine brain tubulin; assay: Inhibition of [3H]colchicine binding to tubulin; details: 1.0 μM tubulin, 5.0 μM [3H]colchicine, mean ±SD
[4] = system: Bovine brain tubulin; assay: Inhibition of tubulin assembly; assay type: biochemical; details: read-out: Tubulin assembly IC50; 10 μM tubulin; mean ±SD of at least two determinations
[5] = system: Bovine brain tubulin; details: 1.0 μM tubulin, 5.0 μM [3H]colchicine, mean ±SD; cited from earlier work
[6] = system: Renal SN12-C; details: read-out: GI50 Renal SN12-C; NCI-60 panel; cited from earlier work
[7] = system: Melanoma UACC-62; details: read-out: GI50 Melanoma UACC-62; NCI-60 panel; cited from earlier work
[8] = system: Ovarian OVCAR-3; details: read-out: GI50 Ovarian OVCAR-3; NCI-60 panel; cited from earlier work
[9] = system: Colon HCT-116; details: read-out: GI50 Colon HCT-116; NCI-60 panel; cited from earlier work
[10] = system: NCI 60-cell line panel; details: mean concentration that caused 50% growth inhibition in all 60 cell lines; cited from earlier work
[11] = system: CNS SF-539; details: read-out: GI50 CNS SF-539; NCI-60 panel; cited from earlier work
[12] = system: Lung HOP-62; details: read-out: GI50 Lung HOP-62; NCI-60 panel; cited from earlier work
[13] = system: Colon HCT-116; assay: NCI-60 cell line assay, Colon HCT-116; assay type: cell-based; details: Homo sapiens, HCT-116, read-out: GI50 Colon HCT-116
[14] = system: Renal SN12-C; assay: NCI-60 cell line assay, Renal SN12-C; assay type: cell-based; details: Homo sapiens, SN12C, read-out: GI50 Renal SN12-C
[15] = system: NCI 60-cell line panel; assay: NCI-60 cell line assay, mean over all 60 cell lines; assay type: cell-based; details: for MGM: mean concentration that caused 50% growth inhibition in all 60 cell lines
[16] = system: Ovarian OVCAR-3; assay: NCI-60 cell line assay, Ovarian OVCAR-3; assay type: cell-based; details: Homo sapiens, OVCAR-3, read-out: GI50 Ovarian OVCAR-3
[17] = system: Melanoma UACC-62; assay: NCI-60 cell line assay, Melanoma UACC-62; assay type: cell-based; details: Homo sapiens, UACC-62, read-out: GI50 Melanoma UACC-62
[18] = system: Lung HOP-62; assay: NCI-60 cell line assay, Lung HOP-62; assay type: cell-based; details: Homo sapiens, HOP-62, read-out: GI50 Lung HOP-62
[19] = system: various cancer lines in sealed polyvinylidine fluoride fibres implanted i.p. or s.c.; assay: NCI hollow fibre assay; details: mice; for Hollow fibre assay score (maximum 96): total score
[20] = mean of three determinations, 96 h

COc1cc2c(cc1O)CC(C)N(Cc1cc(Br)c(OC)c(OC)c1)C2 (racemic) [Compound 11j, (±)-2-(3-Bromo-4,5-dimethoxybenzyl)-6-hydroxy-7-methoxy-3-methyl-1,2,3,4-tetrahydroisoquinoline]
GI50 [1, 20]: 400 nM | GI50 [2, 20]: 300 nM

COc1cc2c(cc1OS(N)(=O)=O)CC(C)N(Cc1cc(Br)c(OC)c(OC)c1)C2 (racemic) [Compound 12j, (±)-2-(3-Bromo-4,5-dimethoxybenzyl)-7-methoxy-3-methyl-6-sulfamoyloxy-1,2,3,4-tetrahydroisoquinoline]
Colchicine binding Inhibition at 5 μM inhibitor [3]: 50 ±4% | GI50 [1, 20]: 50 nM | IC50 [4]: 2400 ± 200 nM | GI50 [2, 20]: 40 nM

COc1ccc(/C=C\c2cc(OC)c(OC)c(OC)c2)cc1O [CA-4, combretastatin A-4]
Colchicine binding Inhibition at 5 μM inhibitor [5]: 98 ±0.7%

COc1cc2c(cc1OS(N)(=O)=O)CC[C@@H]1[C@@H]2CC[C@]2(C)[C@@H](OS(N)(=O)=O)CC[C@@H]12 [Compound 1a, 2-methoxyestradiol-3,17-O,O-bis-sulfamate]
GI50 [6]: 126 nM | GI50 [7]: < 10 nM | GI50 [8]: < 10 nM | GI50 [9]: 45 nM | MGM [10]: 0.087 µM | GI50 [11]: 36 nM | GI50 [12]: 51 nM

COc1cc2c(cc1O)CCN(Cc1cc(Cl)c(OC)c(OC)c1)C2 [Compound 11e, 2-(3-Chloro-4,5-dimethoxybenzyl)-6-hydroxy-7-methoxy-1,2,3,4-tetrahydroisoquinoline]
GI50 [13]: 474 nM | GI50 [14]: 910 nM | MGM [15]: 0.501 µM | GI50 [16]: 187 nM | GI50 [17]: 350 nM | GI50 [18]: 869 nM

COc1cc2c(cc1O)CCN(Cc1cc(Br)c(OC)c(OC)c1)C2 [Compound 11f, 2-(3-Bromo-4,5-dimethoxybenzyl)-6-hydroxy-7-methoxy-1,2,3,4-tetrahydroisoquinoline]
GI50 [13]: 143 nM | Hollow fibre assay score (maximum 96) ([19]; dosed i.p. at 150 mg/kg): 2 | GI50 [14]: 768 nM | MGM [15]: 0.38 µM | GI50 [16]: 74 nM | GI50 [17]: 305 nM | GI50 [18]: 353 nM

COc1cc2c(cc1OS(N)(=O)=O)CCN(Cc1cc(Cl)c(OC)c(OC)c1)C2 [Compound 12e, 2-(3-Chloro-4,5-dimethoxybenzyl)-7-methoxy-6-sulfamoyloxy-1,2,3,4-tetrahydroisoquinoline]
GI50 [13]: 39 nM | Colchicine binding Inhibition at 5 μM inhibitor [3]: 32 ±3% | Increase in antiproliferative activity relative to 4a ([1]; DU-145): 8- to 10 fold | IC50 [4]: 5600 ± 700 nM | GI50 [14]: 66 nM | MGM values ([15]; NCI 60-cell line assay, stated in abstract): ~40 nM | MGM [15]: 0.039 µM | GI50 [16]: 20 nM | GI50 [17]: 25 nM | GI50 [18]: 56 nM

COc1cc2c(cc1OS(N)(=O)=O)CCN(Cc1cc(Br)c(OC)c(OC)c1)C2 [Compound 12f, 2-(3-Bromo-4,5-dimethoxybenzyl)-7-methoxy-6-sulfamoyloxy-1,2,3,4-tetrahydroisoquinoline]
GI50 [13]: 38 nM | Colchicine binding Inhibition at 5 μM inhibitor [3]: 45 ±0.6% | Hollow fibre assay score for i.p. fibres ([19]; dosed i.p. at 75 mg/kg): 16 | Hollow fibre assay score for s.c. fibres ([19]; dosed i.p. at 75 mg/kg): 18 | Hollow fibre assay score (maximum 96) ([19]; dosed i.p. at 75 mg/kg): 34 | IC50 [4]: 2400 ± 400 nM | GI50 [14]: 55 nM | MGM [15]: 0.044 µM | GI50 [16]: 18 nM | GI50 [17]: 28 nM | GI50 [18]: 80 nM

CCc1cc(CN2CCc3cc(OS(N)(=O)=O)c(OC)cc3C2)cc(CC)c1CC [Compound 12i, 7-Methoxy-6-sulfamoyloxy-2-(3,4,5-triethylbenzyl)-1,2,3,4-tetra-hydroisoquinoline]
GI50 [13]: 1050 nM | GI50 [14]: 5290 nM | MGM [15]: 1.17 µM | GI50 [16]: 209 nM | GI50 [17]: 592 nM | GI50 [18]: 2450 nM

CCc1cc2c(cc1O)CCN(Cc1cc(Br)c(OC)c(OC)c1)C2 [Compound 14, 2-(3-Bromo-4,5-dimethoxybenzyl)-7-ethyl-6-hydroxy-1,2,3,4-tetrahydroisoquinoline]
GI50 ([1]; Homo sapiens, DU-145, 96 h): 1200 nM | GI50 ([2]; Homo sapiens, MDA-MB-231, 96 h): 400 nM

CCc1cc2c(cc1OS(N)(=O)=O)CCN(Cc1cc(Br)c(OC)c(OC)c1)C2 [Compound 15, 2-(3-Bromo-4,5-dimethoxybenzyl)-7-ethyl-6-sulfamoyloxy-1,2,3,4-tetrahydroisoquinoline]
Colchicine binding Inhibition at 5 μM inhibitor [3]: 78±2% | GI50 ([1]; Homo sapiens, DU-145, 96 h): 20 nM | IC50 [4]: 1800 ± 40 nM | GI50 ([2]; Homo sapiens, MDA-MB-231, 96 h): 30 nM

COc1cc2c(cc1OC)CN(Cc1cc(OC)c(OC)c(OC)c1)CC2 [Compound 17a, 6,7-Dimethoxy-2-(3,4,5-trimethoxybenzyl)-1,2,3,4-tetrahydroisoquinoline]
GI50 ([1]; Homo sapiens, DU-145, 96 h): > 100000 nM | GI50 ([2]; Homo sapiens, MDA-MB-231, 96 h): 77600 nM | Fold less active than 3a ([2]; MDA MB-231): 120 fold

COc1cc2c(cc1OC(C)=O)CCN(Cc1cc(OC)c(OC)c(OC)c1)C2 [Compound 17b, 6-Acetoxy-7-methoxy-2-(3,4,5-trimethoxybenzyl)-1,2,3,4-tetrahydroisoquinoline]
GI50 ([1]; Homo sapiens, DU-145, 96 h): 407 nM | GI50 ([2]; Homo sapiens, MDA-MB-231, 96 h): 340 nM

COc1cc2c(cc1OS(C)(=O)=O)CCN(Cc1cc(OC)c(OC)c(OC)c1)C2 [Compound 17c, 7-Methoxy-6-methanesulfonyloxy-2-(3,4,5-trimethoxybenzyl)-1,2,3,4-tetrahydroisoquinoline]
GI50 ([1]; Homo sapiens, DU-145, 96 h): 220 nM | GI50 ([2]; Homo sapiens, MDA-MB-231, 96 h): 188 nM

COc1cc(CN2CCc3cc(OCc4ccccc4)ccc3C2)cc(OC)c1OC [Compound 20a, 6-Benzyloxy-2-(3,4,5-trimethoxybenzyl)-1,2,3,4-tetrahydroisoquinoline]
GI50 ([1]; Homo sapiens, DU-145, 96 h): > 100000 nM | GI50 ([2]; Homo sapiens, MDA-MB-231, 96 h): > 100000 nM

COc1cc(CN2CCc3cc(O)ccc3C2)cc(OC)c1OC [Compound 20b, 6-Hydroxy-2-(3,4,5-trimethoxybenzyl)-1,2,3,4-tetrahydroisoquinoline]
GI50 [13]: 35 nM | Colchicine binding Inhibition at 5 μM inhibitor [3]: 73±3% | GI50 ([1]; Homo sapiens, DU-145, 96 h): 151 nM | IC50 [4]: 1600 ± 100 nM | GI50 ([2]; Homo sapiens, MDA-MB-231, 96 h): 227 nM | GI50 [14]: 49 nM | MGM [15]: 0.045 µM | GI50 [16]: 19 nM | GI50 [17]: 49 nM | GI50 [18]: 62 nM

COc1ccc2c(c1)CCN(Cc1cc(OC)c(OC)c(OC)c1)C2 [Compound 20c, 6-Methoxy-2-(3,4,5-trimethoxybenzyl)-1,2,3,4-tetrahydroisoquinoline]
Fold less active than 20b [1]: 20- to 200 fold | GI50 ([1]; Homo sapiens, DU-145, 96 h): 31000 nM | GI50 ([2]; Homo sapiens, MDA-MB-231, 96 h): 4890 nM

COc1cc(CN2CCc3cc(OS(N)(=O)=O)ccc3C2)cc(OC)c1OC [Compound 20d, 6-Sulfamoyloxy-2-(3,4,5-trimethoxybenzyl)-1,2,3,4-tetrahydroisoquinoline]
GI50 ([1]; Homo sapiens, DU-145, 96 h): > 100000 nM | GI50 ([2]; Homo sapiens, MDA-MB-231, 96 h): > 100000 nM

COc1cc(CN2CCc3cc(O)ccc3C2)cc(Cl)c1OC [Compound 20e, 2-(3-Chloro-4,5-dimethoxybenzyl)-6-hydroxy-1,2,3,4-tetrahydroisoquinoline]
Fold less active than 20b [1]: 100- to 600 fold | GI50 ([1]; Homo sapiens, DU-145, 96 h): 86000 nM | GI50 ([2]; Homo sapiens, MDA-MB-231, 96 h): 74000 nM

COc1cc(CN2CCc3cc(O)ccc3C2)cc(Br)c1OC [Compound 20f, 2-(3-Bromo-4,5-dimethoxybenzyl)-6-hydroxy-1,2,3,4-tetrahydroisoquinoline]
GI50 ([1]; Homo sapiens, DU-145, 96 h): 35000 nM | GI50 ([2]; Homo sapiens, MDA-MB-231, 96 h): 25000 nM

CCOc1c(OC)cc(CN2CCc3cc(O)ccc3C2)cc1OC [Compound 20g, 2-(3,5-Dimethoxy-4-ethoxybenzyl)-6-hydroxy-1,2,3,4-tetrahydroisoquinoline]
GI50 ([1]; Homo sapiens, DU-145, 96 h): > 100000 nM | GI50 ([2]; Homo sapiens, MDA-MB-231, 96 h): > 100000 nM

CCOc1cc(CN2CCc3cc(O)ccc3C2)cc(OCC)c1OCC [Compound 20h, 6-Hydroxy-2-(3,4,5-triethoxybenzyl)-1,2,3,4-tetrahydroisoquinoline]
GI50 ([1]; Homo sapiens, DU-145, 96 h): > 100000 nM | GI50 ([2]; Homo sapiens, MDA-MB-231, 96 h): > 100000 nM

COc1cc(C(=O)N2CCc3cc(O)ccc3C2)cc(OC)c1OC [Compound 20i, 6-Hydroxy-2-(3,4,5-trimethoxybenzoyl)-1,2,3,4-tetrahydroisoquinoline]
GI50 ([1]; Homo sapiens, DU-145, 96 h): > 100000 nM | GI50 ([2]; Homo sapiens, MDA-MB-231, 96 h): > 100000 nM

COc1cc(CCN2CCc3cc(O)ccc3C2)cc(OC)c1OC [Compound 20j, 6-Hydroxy-2-(3,4,5-trimethoxyphenethyl)-1,2,3,4-tetrahydroisoquinoline]
GI50 ([1]; Homo sapiens, DU-145, 96 h): > 100000 nM | GI50 ([2]; Homo sapiens, MDA-MB-231, 96 h): > 100000 nM
